Here are results for 37 molecules from ChEMBL document CHEMBL3769364, “Synthesis and structure-activity relationship studies of novel 3,9-substituted α-carboline derivatives with high cytotoxic activity against colorectal cancer cells” (Eur J Med Chem, 2016).

A value given as a limit tells only on which side of the number the result lay.

By IC50 is commonly meant the point on the concentration scale where inhibition reaches its midpoint. High values mean lower potency, low ones higher potency.

Test [1] is described as follows: Cytotoxicity against human COLO205 cells after 48 hrs by MTT assay. The note with it: COLO 205, 48 h. In general terms: Formazan colour is commonly taken as a measure of viable cells.
Test [2] can be described thus: Cytotoxicity against human Hep3B cells after 48 hrs by MTT assay.
Test [3] deals with Detroit 551. Description: Cytotoxicity against human Detroit 551 cells after 48 hrs by MTT assay. Particulars: Detroit 551, 48 h.
The nature of test [4]: Cytotoxicity against human H460 cells after 48 hrs by MTT assay. Particulars: NCI-H460, 48 h.
Test [5] deals with A498. Description: Cytotoxicity against human A498 cells after 48 hrs by MTT assay. Particulars: A498, 48 h.
Test [6] is described as follows: Cytotoxicity against human HL60 cells after 48 hrs by MTT assay. Particulars: HL-60, 48 h.

As for `COC(=O)c1cnc2[nH]c3ccccc3c2c1`, the IC50 in test [1], in test [2] and in test [3] was > 50 µM throughout.

As to `OCc1cnc2c(c1)c1ccccc1n2Cc1c(F)cccc1F`, the IC50 in test [1], in test [2], in test [4] and in test [5] was > 50 µM in each case.

In the case of `COC(=O)c1cnc2c(c1)c1ccccc1n2Cc1ccc(Cl)cc1`, the IC50 in test [6], in test [1], in test [2], in test [3], in test [4] and in test [5] was > 50 µM in each case.

With `OCc1cnc2c(c1)c1ccccc1n2Cc1ccsc1`, the IC50 in test [6], in test [1], in test [3], in test [4] and in test [5] was > 50 µM each time.

As for `COC(=O)c1cnc2c(c1)c1ccccc1n2Cc1ccc(F)cc1F`, the half-maximal inhibitory concentration (IC50) in test [6], in test [1], in test [2], in test [3], in test [4] and in test [5] was > 50 µM throughout.

As to `COc1cccc(Cn2c3ccccc3c3cc(CO)cnc32)c1`, the IC50 in test [3] is > 50 µM.

Turning to `COC(=O)c1cnc2c(c1)c1ccccc1n2Cc1ccccc1`, the half-inhibitory concentration (IC50) in test [6], in test [1], in test [2], in test [3], in test [4] and in test [5] was > 50 µM in each case.

On to `OCc1cnc2c(c1)c1ccccc1n2Cc1ccccc1`, for which the IC50 in test [5] is > 50 µM.

With `COC(=O)c1cnc2c(c1)c1ccccc1n2Cc1ccsc1`, the IC50 in test [6], in test [1], in test [2], in test [3], in test [4] and in test [5] was > 50 µM each time.

Consider `OCc1cnc2c(c1)c1ccccc1n2Cc1ccco1`, for which the IC50 in test [6], in test [1], in test [2], in test [3], in test [4] and in test [5] was > 50 µM throughout.

In the case of `COc1cc(Cn2c3ccccc3c3cc(CO)cnc32)cc(OC)c1`, the IC50 in test [3] is > 50 µM.

As to `O=C(O)c1cnc2c(c1)c1ccccc1n2Cc1ccccc1`, the IC50 is > 100 µM in test [6]; > 50 µM in test [1]; > 100 µM in test [2]; > 100 µM in test [3]; > 100 µM in test [4]; > 50 µM in test [5].

In the case of `COc1ccc(Cn2c3ccccc3c3cc(CO)cnc32)cc1`, the IC50 in test [2], in test [3] and in test [4] was > 50 µM throughout.

Regarding `COC(=O)c1cnc2c(c1)c1ccccc1n2Cc1ccc(F)c(F)c1`, the IC50 in test [1], in test [2], in test [4] and in test [5] was > 50 µM in each case.

On to `COC(=O)c1cnc2c(c1)c1ccccc1n2Cc1cccs1`, for which the half-maximal inhibitory concentration (IC50) in test [6], in test [1], in test [2], in test [3], in test [4] and in test [5] was > 50 µM each time.

With `OCc1cnc2c(c1)c1ccccc1n2Cc1ccccc1Cl`, in test [1], the half-maximal inhibitory concentration (IC50) was > 50 µM.

Take `COC(=O)c1cnc2c(c1)c1ccccc1n2Cc1ccco1`: the IC50 in test [6], in test [1], in test [2], in test [3], in test [4] and in test [5] was > 50 µM each time.

With `OCc1cnc2c(c1)c1ccccc1n2Cc1ccc(Cl)c(Cl)c1`, the IC50 in test [3] is > 50 µM.

`OCc1cnc2c(c1)c1ccccc1n2Cc1c(Cl)cccc1Cl`: the IC50 in test [6], in test [1] and in test [5] was > 50 µM throughout.

For the molecule `OCc1cnc2c(c1)c1ccccc1n2Cc1ccc(Cl)cc1Cl`, the IC50 in test [5] was > 50 µM.

`OCc1cnc2c(c1)c1ccccc1n2Cc1ccc(Cl)cc1`: the 50% inhibitory concentration (IC50) in test [1], in test [3], in test [4] and in test [5] was > 50 µM in each case.

Regarding `OCc1cnc2c(c1)c1ccccc1n2Cc1ccc(F)cc1`, the IC50 in test [1], in test [2], in test [3], in test [4] and in test [5] was > 50 µM throughout.

For the molecule `COC(=O)c1cnc2c(c1)c1ccccc1n2Cc1ccc(Cl)c(Cl)c1`, the half-maximal inhibitory concentration (IC50) in test [1], in test [2], in test [3] and in test [5] was > 50 µM each time.

For the molecule `COC(=O)c1cnc2c(c1)c1ccccc1n2Cc1ccc(OC)cc1`, the IC50 in test [6], in test [1], in test [2], in test [4] and in test [5] was > 50 µM throughout.

Regarding `OCc1cnc2c(c1)c1ccccc1n2Cc1ccc2c(c1)OCO2`, the IC50 in test [1], in test [2], in test [4] and in test [5] was > 50 µM throughout.

As to `COC(=O)c1cnc2c(c1)c1ccccc1n2Cc1cccc(Cl)c1Cl`, the half-maximal inhibitory concentration (IC50) in test [1], in test [2], in test [3], in test [4] and in test [5] was > 50 µM in each case.

Regarding `COC(=O)c1cnc2c(c1)c1ccccc1n2Cc1ccccc1Cl`, the IC50 in test [1], in test [2], in test [3], in test [4] and in test [5] was > 50 µM each time.

Consider `COC(=O)c1cnc2c(c1)c1ccccc1n2Cc1cccc(Cl)c1`, for which the IC50 in test [1], in test [2], in test [3] and in test [5] was > 50 µM in each case.

For `COC(=O)c1cnc2c(c1)c1ccccc1n2Cc1cccc(OC)c1`, the IC50 in test [1], in test [3] and in test [5] was > 50 µM in each case.

As for `COC(=O)c1cnc2c(c1)c1ccccc1n2Cc1cc(OC)cc(OC)c1`, the IC50 in test [5] was > 50 µM.

In the case of `COC(=O)c1cnc2c(c1)c1ccccc1n2Cc1cc(OC)c(OC)c(OC)c1`, the half-inhibitory concentration (IC50) in test [3] and in test [5] was > 50 µM in each case.

Turning to `COC(=O)c1cnc2c(c1)c1ccccc1n2Cc1cc(F)ccc1F`, the IC50 in test [1], in test [2], in test [4] and in test [5] was > 50 µM in each case.

In the case of `OCc1cnc2[nH]c3ccccc3c2c1`, the half-maximal inhibitory concentration (IC50) is 49.7 µM in test [6] and > 50 µM in test [3].

As for `COc1cc(Cn2c3ccccc3c3cc(C(=O)O)cnc32)cc(OC)c1OC`, the half-inhibitory concentration (IC50) in test [6] and in test [3] was > 50 µM each time.

Regarding `OCc1cnc2c(c1)c1ccccc1n2Cc1ccc(F)cc1F`, the IC50 in test [2], in test [3], in test [4] and in test [5] was > 50 µM each time.

On to `COc1cc(Cn2c3ccccc3c3cc(C(=O)O)cnc32)cc(OC)c1`, for which the IC50 in test [1] is > 50 µM; in test [3], > 100 µM; in test [4], > 50 µM.

For the molecule `OCc1cnc2c(c1)c1ccccc1n2Cc1ccc(F)c(F)c1`, the IC50 in test [2], in test [4] and in test [5] was > 50 µM each time.
